Consider 1 compound from US6660309B2, “Antitumor agent” (Biozak, Inc., priority 2001, dated 2003).

SMILES strings stand for the structures.

For one assay, the system named is HIT-T15 cells. The assay is described as follows: Tolbutamide-induced insulin secretion in HIT-T15 cells (FIG. 3). As to conditions: FIG. 3, tolbutamide alone, 1 hour; without tolbutamide about 0.17. The class given is cell-based. How it is done:
FIG. 3 is a graph showing the effect of Composition A on tolbutamide-induced insulin secretion in HIT-T15 cells.
(§1) In order to avoid interference from the natural insulin secretagogue glucose, the effect of Composition A on insulin secretion was studied under glucose-free conditions. The sulfonylurea compound, tolbutamide was used as the insulin secretagogue in the studies of the effect of Composition A on stimulated insulin secretion.
(§2) Insulin assays were performed using the rat insulin assay kit purchased from Crystal Chemists, Inc. (Chicago, Ill., USA). This kit uses a in an Enzyme Linked Immunosorbent Assay (non-competitive sandwich method). The assay was performed according to the manufacturer's protocol. Briefly, the standard or sample (5 μl) diluted with a sample diluent was added to the wells of a multi-well polystyrene plate. The wells were precoated with antiinsulin antibody. After 2 hours of incubation, the wells were thoroughly washed with a washing buffer. A peroxidase-conjugated antiinsulin antibody solution was then added to the well. […] The color was read in an microplate reader using a 405 filter. […]
(§3) The effect of Composition A on tolbutamide-induced insulin secretion in HIT-T15 and βTC-6 cells is shown in […]. […] Samples were measured 1 hour later. […]

The next assay has as its system βTC-6 cells. The assay is described as follows: Tolbutamide-induced insulin secretion in βTC-6 cells (FIG. 2). The class given is cell-based. How it is done:
FIG. 2 is a graph showing the effect of Composition A on tolbutamide-induced insulin secretion in βTC-6 cells.
as §1, §2, §3

`CCCCNC(=O)NS(=O)(=O)c1ccc(C)cc1` [tolbutamide]: the “Insulin secretion with tolbutamide alone” value in the assay on HIT-T15 cells is reported as “about 0.3 ng/ml/mg protein”. Also, in the assay with βTC-6 cells (FIG. 2, tolbutamide 10 μg/ml alone, 1 hour, without tolbutamide 0.9), the “Insulin production with tolbutamide alone” value was determined as 1.2 ng/ml/mg protein. Moreover, the “More insulin secreted by tolbutamide-treated cells than by untreated cells” value with βTC-6 cells (βTC-6, 1-hour period following glucose deprivation and replacement of the medium) is “approximately 30%”.
